Test results: patent US20120058989A1, “ANTIBACTERIAL FLUOROQUINOLONE ANALOGS” (Achaogen, Inc., priority 2008, published 2012)

Legend:
Experiment in all cases: MIC, CLSI broth microdilution
Assay type in all cases: cell-based
[1] = tested on: A. baumannii AABA1009 (Fluoroquinolone-resistant); settings: Table 2
Summary of the method: (§1)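 Broth microdilution per CLSI M7-A7, with serial two-fold compound dilutions in Mueller Hinton Broth mixed 1:1 with inoculum. Colonies from a previous-day agar plate were suspended in saline to a final 5×10^5 CFU/mL. Plates were incubated 20 hours at 35° C. in ambient air.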

[2] = tested on: A. baumannii AABA1020 (Fluoroquinolone-resistant); settings: Table 3
Summary of the method: as §1

[3] = tested on: A. baumannii AABA1065 (Fluoroquinolone-susceptible)
Summary of the method: as §1

[4] = tested on: E. coli AECO001 (Fluoroquinolone susceptible, ATCC25922)
Summary of the method: as §1

[5] = tested on: E. coli AECO002 (Fluoroquinolone susceptible); settings: Table 3
Summary of the method: as §1

[6] = tested on: E. coli AECO066 (Fluoroquinolone-resistant)
Summary of the method: as §1

[7] = tested on: E. coli AECO086 (Fluoroquinolone-resistant); settings: Table 3
Summary of the method: as §1

[8] = tested on: P. aeruginosa APAE001 (Fluoroquinolone-susceptible, ATCC27853)
Summary of the method: as §1

[9] = tested on: P. aeruginosa APAE002 (Fluoroquinolone susceptible); settings: Table 3
Summary of the method: as §1

[10] = tested on: P. aeruginosa APAE054 (Fluoroquinolone-resistant)
Summary of the method: as §1

[11] = tested on: S. aureus ASAU001 (Fluoroquinolone-susceptible, ATCC29213)
Summary of the method: as §1

[12] = tested on: S. aureus ASAU002 (Fluoroquinolone-susceptible, ATCC33591 (MRSA)); settings: Table 3
Summary of the method: as §1

[13] = tested on: S. aureus ASAU1031 (Fluoroquinolone-resistant)
Summary of the method: as §1

[14] = tested on: S. aureus ASAU1033 (Fluoroquinolone-resistant); settings: Table 3
Summary of the method: as §1

[15] = tested on: S. pneumoniae ASPN001 (Fluoroquinolone-susceptible, ATCC49619)
Summary of the method: as §1

[16] = tested on: S. pneumoniae ASPN002 (Fluoroquinolone-susceptible, ATCC10813); settings: Table 3
Summary of the method: as §1

[17] = tested on: S. pneumoniae ASPN1018 (Fluoroquinolone-resistant); settings: Table 3
Summary of the method: as §1

[18] = tested on: S. pneumoniae ASPN1027 (Fluoroquinolone-resistant)
Summary of the method: as §1

MIC AABA 1009 [1] | MIC AABA1020 [2] | MIC AABA 1065 ([3]; Table 3) | MIC AECO 001 ([4]; Table 3) | MIC AECO002 [5] | MIC AECO 066 ([6]; Table 2) | MIC AECO 066 ([6]; Table 3) | MIC AECO086 [7] | MIC APAE 001 ([8]; Table 2) | MIC APAE 001 ([8]; Table 3) | MIC APAE002 [9] | MIC APAE 054 ([10]; Table 2) | MIC APAE 054 ([10]; Table 3) | MIC ASAU 001 ([11]; Table 3) | MIC ASAU002 [12] | MIC ASAU 1031 ([13]; Table 2) | MIC ASAU 1031 ([13]; Table 3) | SMILES | MIC AABA 1065 ([3]; Table 2) | MIC AECO 001 ([4]; Table 2, 35° C., 20 hours) | MIC ASAU 001 ([11]; Table 2) | also measured
C (MIC's of greater than 8.0 μg/mL = C) | D (MIC's of greater than 8.0 μg/mL = D) | C (MIC's of 2.0 μg/mL to 8.0 μg/mL = C) | C (MIC's of 2.0 μg/mL to 8.0 μg/mL = C) | C (MIC's of 2.0 μg/mL to 8.0 μg/mL = C) | C (MIC's of greater than 8.0 μg/mL = C) | D (MIC's of greater than 8.0 μg/mL = D) | D (MIC's of greater than 8.0 μg/mL = D) | C (MIC's of greater than 8.0 μg/mL = C) | D (MIC's of greater than 8.0 μg/mL = D) | D (MIC's of greater than 8.0 μg/mL = D) | C (MIC's of greater than 8.0 μg/mL = C) | D (MIC's of greater than 8.0 μg/mL = D) | C (MIC's of 2.0 μg/mL to 8.0 μg/mL = C) | C (MIC's of 2.0 μg/mL to 8.0 μg/mL = C) | C (MIC's of greater than 8.0 μg/mL = C) | D (MIC's of greater than 8.0 μg/mL = D) | NC1CC2CCCc3c(c(F)cc4c(=O)c(C(=O)O)cn(C5CC5)c34)N2C1.O=C(O)C(F)(F)F [7C/29, (7aS,9S)-9-Amino-4-cyclopropyl-12-fluoro-1-oxo-4,5,6,7,7a,8,9,10-octahydro-1H-pyrrolo quinoline-2-carboxylic acid trifluoroacetate] | B (MIC's of greater than 1.0 μg/mL to 8.0 μg/mL = B) | B (MIC's of greater than 1.0 μg/mL to 8.0 μg/mL = B) | B (MIC's of greater than 1.0 μg/mL to 8.0 μg/mL = B) | MIC ASAU1033 [14]: D (MIC's of greater than 8.0 μg/mL = D); MIC ASPN 001 ([15]; Table 2): C (MIC's of greater than 8.0 μg/mL = C); MIC ASPN 001 ([15]; Table 3): D (MIC's of greater than 8.0 μg/mL = D); MIC ASPN002 [16]: D (MIC's of greater than 8.0 μg/mL = D); MIC ASPN1018 [17]: D (MIC's of greater than 8.0 μg/mL = D); MIC ASPN 1027 ([18]; Table 2): C (MIC's of greater than 8.0 μg/mL = C); MIC ASPN 1027 ([18]; Table 3): D (MIC's of greater than 8.0 μg/mL = D)
C (MIC's of greater than 8.0 μg/mL = C) | D (MIC's of greater than 8.0 μg/mL = D) | C (MIC's of 2.0 μg/mL to 8.0 μg/mL = C) | B (MIC's of 1.0 μg/mL to 2.0 μg/mL = B) | B (MIC's of 1.0 μg/mL to 2.0 μg/mL = B) | C (MIC's of greater than 8.0 μg/mL = C) | D (MIC's of greater than 8.0 μg/mL = D) | D (MIC's of greater than 8.0 μg/mL = D) | C (MIC's of greater than 8.0 μg/mL = C) | D (MIC's of greater than 8.0 μg/mL = D) | D (MIC's of greater than 8.0 μg/mL = D) | C (MIC's of greater than 8.0 μg/mL = C) | D (MIC's of greater than 8.0 μg/mL = D) | B (MIC's of 1.0 μg/mL to 2.0 μg/mL = B) | B (MIC's of 1.0 μg/mL to 2.0 μg/mL = B) | C (MIC's of greater than 8.0 μg/mL = C) | D (MIC's of greater than 8.0 μg/mL = D) | NC1CC2CC=Cc3c(c(F)cc4c(=O)c(C(=O)O)cn(C5CC5)c34)N2C1.O=C(O)C(F)(F)F [7C/30, (7aS,9S)-9-Amino-4-cyclopropyl-12-fluoro-1-oxo-4,7,7a,8,9,10-hexahydro-1H-pyrrolo[1′,2′:1,7]azepino-[2,3-h]quinoline-2-carboxylic acid trifluoroacetate] | B (MIC's of greater than 1.0 μg/mL to 8.0 μg/mL = B) | B (MIC's of greater than 1.0 μg/mL to 8.0 μg/mL = B) | B (MIC's of greater than 1.0 μg/mL to 8.0 μg/mL = B) | MIC ASAU1033 [14]: D (MIC's of greater than 8.0 μg/mL = D); MIC ASPN 001 ([15]; Table 2): B (MIC's of greater than 1.0 μg/mL to 8.0 μg/mL = B); MIC ASPN 001 ([15]; Table 3): C (MIC's of 2.0 μg/mL to 8.0 μg/mL = C); MIC ASPN002 [16]: C (MIC's of 2.0 μg/mL to 8.0 μg/mL = C); MIC ASPN1018 [17]: C (MIC's of 2.0 μg/mL to 8.0 μg/mL = C); MIC ASPN 1027 ([18]; Table 2): B (MIC's of greater than 1.0 μg/mL to 8.0 μg/mL = B); MIC ASPN 1027 ([18]; Table 3): C (MIC's of 2.0 μg/mL to 8.0 μg/mL = C)

SMILES | MIC AABA 1009 [1] | MIC AABA1020 [2] | MIC AABA 1065 ([3]; Table 3) | MIC AECO 001 ([4]; Table 3) | MIC AECO002 [5] | MIC AECO 066 ([6]; Table 2) | MIC AECO 066 ([6]; Table 3) | MIC AECO086 [7] | MIC APAE 001 ([8]; Table 2) | MIC APAE 001 ([8]; Table 3) | MIC APAE002 [9] | MIC APAE 054 ([10]; Table 2) | MIC APAE 054 ([10]; Table 3) | MIC ASAU 001 ([11]; Table 3) | MIC ASAU002 [12] | MIC ASAU 1031 ([13]; Table 2) | MIC ASAU 1031 ([13]; Table 3) | MIC AABA 1065 ([3]; Table 2) | MIC AECO 001 ([4]; Table 2, 35° C., 20 hours) | MIC ASAU 001 ([11]; Table 2) | also measured
N[C@H]1C[C@H]2CC=Cc3c(c(F)cc4c(=O)c(C(=O)O)cn(C5CC5)c34)N2C1.O=C(O)C(F)(F)F [7B/18, (7aR,9S)-9-Amino-4-cyclopropyl-12-fluoro-1-oxo-4,7,7a,8,9,10-hexahydro-1H-pyrrolo[1′,2′:1,7]azepino[2,3h]-quinoline-2-carboxylic acid trifluoroacetate] | C (MIC's of greater than 8.0 μg/mL = C) | C (MIC's of 2.0 μg/mL to 8.0 μg/mL = C) | A (MIC's of less than 1.0 = A) | A (MIC's of less than 1.0 = A) | A (MIC's of less than 1.0 = A) | B (MIC's of greater than 1.0 μg/mL to 8.0 μg/mL = B) | C (MIC's of 2.0 μg/mL to 8.0 μg/mL = C) | C (MIC's of 2.0 μg/mL to 8.0 μg/mL = C) | A (MIC's of 1.0 μg/mL or less = A) | A (MIC's of less than 1.0 = A) | A (MIC's of less than 1.0 = A) | C (MIC's of greater than 8.0 μg/mL = C) | D (MIC's of greater than 8.0 μg/mL = D) | A (MIC's of less than 1.0 = A) | A (MIC's of less than 1.0 = A) | B (MIC's of greater than 1.0 μg/mL to 8.0 μg/mL = B) | C (MIC's of 2.0 μg/mL to 8.0 μg/mL = C) | A (MIC's of 1.0 μg/mL or less = A) | A (MIC's of 1.0 μg/mL or less = A) | A (MIC's of 1.0 μg/mL or less = A) | MIC ASAU1033 [14]: D (MIC's of greater than 8.0 μg/mL = D); MIC ASPN 001 ([15]; Table 2): A (MIC's of 1.0 μg/mL or less = A); MIC ASPN 001 ([15]; Table 3): A (MIC's of less than 1.0 = A); MIC ASPN002 [16]: A (MIC's of less than 1.0 = A); MIC ASPN1018 [17]: B (MIC's of 1.0 μg/mL to 2.0 μg/mL = B); MIC ASPN 1027 ([18]; Table 2): B (MIC's of greater than 1.0 μg/mL to 8.0 μg/mL = B); MIC ASPN 1027 ([18]; Table 3): C (MIC's of 2.0 μg/mL to 8.0 μg/mL = C)
